Assay results from the supplement of paper PMC6470124.

Key:
[1] = LC retention time (Atlantis T3, 5-95% MeOH gradient, 0.1% formic acid); higher = more retained / less polar
Summary of the method: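 Retention times were recorded for reference standards (purity ≥ 95%) on a polar reversed-phase C18 column (Atlantis T3, 3 × 150 mm, 3 μm) at 0.3 mL/min. Elution used water and methanol, each with 0.1% formic acid, in a gradient from 5 to 95% methanol over 17.5 min. Detection was by high-resolution tandem mass spectrometry on a QExactive Plus, with positive and negative electrospray in separate runs. Peaks were found and integrated in TraceFinder (5 ppm tolerance, at least three points per peak) and then checked by hand.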

[2] = absolute recovery over mixed-bed multilayer solid-phase extraction; higher = better recovery; settings: enrichment method: SPE
Summary of the method: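 Wastewater (100–250 mL, adjusted to pH 6.5 and glass-fibre filtered) or 1000 mL unfiltered nanopure water was loaded on a three-layer mixed-bed cartridge and eluted with basic then acidic ethyl acetate/methanol. Standards were spiked before extraction, after it, or not at all, at 200 ng/L (water) or 1000 ng/L (wastewater), with class exceptions. Internal standards were added afterwards, then LC-HRMS/MS ran in both ionisation modes. Absolute recovery compares background-corrected response ratios of pre- versus post-spiked samples, averaged over at least two replicates.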

[3] = absolute recovery over vacuum-assisted evaporative concentration; higher = better recovery; settings: enrichment method: VEC
Summary of the method: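 Samples of influent (6 mL), effluent (15 mL) and surface or nanopure water (60 mL) were spiked with standards before or after concentration, or left unspiked, at 200 ng/L (nanopure/surface) or 1000 ng/L (wastewater), adjusted by class and compound. Concentration was by evaporation at 55 °C and 20 mbar to about 0.3 mL, followed by adjustment to 0.4 mL and centrifugation. Internal standards were then added for LC-HRMS/MS analysis. Absolute recovery was (response ratio pre − unspiked)/(post − unspiked) × 100, using averages of ≥ 2 replicates.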

SMILES | LC retention time [1] | absolute recovery ([2]; nanopure water) | absolute recovery ([2]; surface water) | absolute recovery ([2]; wastewater effluent) | absolute recovery ([2]; wastewater influent) | absolute recovery ([3]; wastewater effluent) | absolute recovery ([3]; wastewater influent)
CSC1=NC(C)(c2ccccc2)C(=O)N1Nc1ccccc1 (centres undefined) [Fenamidone] | 19.2 min | 100% | 107% | 101% | 91.6% | 106% | 98.7%
CC1(C(=O)Nc2ccc(O)c(Cl)c2Cl)CCCCC1 [Fenhexamid] | 20.1 min | 102% |  |  | 97% | 92.1% | 96.3%
CC(C)OC(=O)C(C)(C)Oc1ccc(C(=O)c2ccc(Cl)cc2)cc1 [Fenofibrat] | 22.5 min | 70% | 86.7% | 81% | 78.4% | 105% | 98.6%
CC(C)(Oc1ccc(C(=O)c2ccc(Cl)cc2)cc1)C(=O)[O-] [Fenofibric-acid] | 20.8 min | 98.5% | 86% | 82.7% | 99% | 106% | 102%
CCOC(=O)NCCOc1ccc(Oc2ccccc2)cc1 [Fenoxycarb] | 20.4 min | 105% | 127% | 113% | 74.2% | 127% | 120%
CC(Cc1ccc(C(C)(C)C)cc1)C[NH+]1CCCCC1 (centres undefined) [Fenpropidin] | 16.4 min |  | 107% | 94.1% | 67.3% | 146% | 46.3%
CC(C)(C(=O)[O-])c1ccc(C(O)CCC[NH+]2CCC(C(O)(c3ccccc3)c3ccccc3)CC2)cc1 (centres undefined) [Fexofenadin] | 15.7 min | 97% | 99.3% | 91.4% | 101% | 105% | 101%
N#Cc1nn(-c2c(Cl)cc(C(F)(F)F)cc2Cl)c(N)c1SC(F)(F)F [Fipronil-sulfid] | 20.5 min | 105% | 107% | 89.4% | 121% | 118% | 137%
N#Cc1nn(-c2c(Cl)cc(C(F)(F)F)cc2Cl)c(N)c1S(=O)C(F)(F)F (centres undefined) [Fipronil] | 20.4 min | 99% | 95.7% | 94.2% | 88.5% | 103% | 98.5%
N#CCNC(=O)c1cnccc1C(F)(F)F [Flonicamid] | 12.2 min | 96.3% | 101% | 99.5% | 96% | 99.6% | 106%
CC(Oc1ccc(Oc2ccc(C(F)(F)F)cn2)cc1)C(=O)[O-] (centres undefined) [Fluazifop] | 19.7 min | 99.5% | 96.8% | 96.6% | 98% | 101% | 102%
OC(Cn1cncn1)(Cn1cncn1)c1ccc(F)cc1F [Fluconazol] | 14.2 min | 100% | 92.8% | 96.9% | 96.1% | 105% | 105%
N#Cc1c[nH]cc1-c1cccc2c1OC(F)(F)O2 [Fludioxonil] | 19.5 min | 101% | 108% | 105% | 77% | 116% | 108%
CC(C)N(C(=O)CS(=O)(=O)[O-])c1ccc(F)cc1 [Flufenacet-ESA] | 21.4 min | 89.4% | 84% | 96.3% | 96.4% | 112% | 109%
CC(C)N(C(=O)C(=O)[O-])c1ccc(F)cc1 [Flufenacet-OXA] | 19.1 min | 93.7% | 91.2% | 93% | 92.4% | 106% | 99.5%
CC(C)N(C(=O)COc1nnc(C(F)(F)F)s1)c1ccc(F)cc1 [Flufenacet] | 20.1 min | 100% | 95.9% | 97.5% | 83.5% | 114% | 95.3%
O=C([O-])c1ccccc1Nc1cccc(C(F)(F)F)c1 [Flufenamic-Acid] | 21.6 min | 130% | 106% | 87.9% |  | 101% | 103%
O=C(NCc1ncc(C(F)(F)F)cc1Cl)c1c(Cl)cccc1Cl [Fluopicolide] | 19.6 min | 95.7% | 104% | 97.2% | 93.4% | 115% | 109%
O=C(NCCc1ncc(C(F)(F)F)cc1Cl)c1ccccc1C(F)(F)F [Fluopyram] | 19.9 min | 101% | 93.4% | 93% | 102% | 105% | 54.9%
CON=C(C1=NOCCO1)c1ccccc1Oc1ncnc(Oc2ccccc2Cl)c1F [Fluoxastrobin] | 19.8 min | 97.5% | 80.2% | 90.4% | 83% | 94.1% | 112%
C[NH2+]CCC(Oc1ccc(C(F)(F)F)cc1)c1ccccc1 (centres undefined) [Fluoxetin] | 16.2 min | 79.8% | 90.2% | 85.5% | 82.8% | 91.1% | 91.9%
COC(=O)c1ccc(C(F)(F)F)nc1S(=O)(=O)[N-]C(=O)Nc1nc(OC)cc(OC)n1 [Flupyrsulfuron-methyl-] | 19.2 min | 98.2% | 97.5% | 93.6% | 89.3% | 65.8% | 59.1%
O=C1C(Cl)C(CCl)CN1c1cccc(C(F)(F)F)c1 (centres undefined) [Flurochloridon] | 19.9 min | 98.1% | 104% | 106% | 98% | 92% | 60.5%
Nc1c(Cl)c(F)nc(OCC(=O)[O-])c1Cl [Fluroxypyr (free acid)] | 17.1 min | 97% | 95.8% | 91.7% | 89.2% | 104% | 95.6%
